From a melting point compilation (Tetko et al.; mined from patent text by program, amines drawn as free bases though some values may be those of a salt) come the findings set out here.

The term melting point denotes the temperature of the solid-liquid transition.

As for `N#Cc1ncn2c1[C@@H]1CCCN1C(=O)c1c(Cl)cccc1-2`, the melting point is 237 to 238 °C.

`CCCCCCCc1cc(O)cc(O)c1C(=O)OCc1ccccc1` had a melting point of 104 °C.

Turning to `Cc1nc2cc(C3CCc4cncn43)ccc2[nH]1` (stereo unspecified), the melting point came out at 230 °C. The figure for `CCCCCCCNC(=O)N(C)c1cccc(-c2ccc(C=C(C)C(=O)O)cc2)c1` is 79 °C.

`COc1ccc(C(OCC2OC(n3cnc4c(=O)[nH]c(NC(=O)Cc5ccc(Br)cc5)nc43)CC2O)(c2ccccc2)c2ccc(OC)cc2)cc1` (stereo unspecified): the melting point was 150 to 155 °C. In the case of `Cc1oc2c(C)c(C)c(NC(=O)c3ccc(F)cc3)c(C)c2c1-c1ccc(F)cc1`, the melting point fell in the range of 232 to 234 °C.

Take `CCCCc1nnc(SCc2ccc(OC)cc2)n1Cc1ccc(O)cc1`: the melting point lay within 130 to 131 °C. Compound `CC(C)c1c(-c2ccccc2)[nH]c2nccnc12` returned a melting point of 216 to 218 °C. For the compound `CN1C(=O)[C@H](NC(=O)/C=C/c2c(Cl)cccc2Cl)N=C(c2ccccc2)c2ccccc21`, the melting point lay in the range of 121 to 124 °C. The figure for `N#Cc1cc(F)c(-n2nc(C(F)(F)F)[nH]c2=O)cc1F` is 51 °C; for `CCOC(=O)COc1cc(OC)c2c(c1[N+](=O)[O-])OC1(CCCCC1)CC2=O` it is 142 to 143 °C.

Take `O=c1[nH]c(=O)n(C2CC(OCc3ccccc3)C(CO)O2)cc1F` (stereo unspecified): the melting point lay within 138 to 139 °C. The compound `CCc1ncc(CCCOc2c(C)cc(-c3nnn(C)n3)cc2C)n1C` came in with a melting point of 96 to 98 °C. In turn, `CC(NC(N)=S)c1ccc(NS(C)(=O)=O)cc1` (stereo unspecified) came in with a melting point of 77 °C. The figure for `O=C(Nc1ccc(Br)cn1)Nc1cccc2c1C1CC3(CCN1C2=O)SCCS3` (stereo unspecified) is 240 °C. As to `CC(=O)OCCOc1cccc(C(N)=O)c1`, the melting point lay within 121 to 122 °C. The compound `O=C(CCCCCc1ccc(Cl)cc1)Nc1ccc(C(=O)O)cc1` displayed a melting point of 218 to 220 °C. The figure for `CCCCCC(CC(=O)Nc1cc(C(N)=O)ccc1C(C)(C)C)c1ccc(OC)cc1OC` (single isomer, unassigned; (+)) is 152 °C. As for `CCOC(=O)N=P(c1ccccc1)(c1ccccc1)c1ccccc1CN1CCCCC1`, the melting point lay in the range of 121 to 123 °C. As for `O=C(NC1CCN(CCc2ccc([N+](=O)[O-])cc2)CC1)c1ccccc1`, the figure is 209 to 216 °C; as for `CC(C)(N)CSCCO`, 49 to 51 °C. Compound `COc1ccc(-c2n[nH]c3c2Cc2ccccc2-3)cc1` came in with a melting point of 247 °C. As for `C[C@@H]1N[C@H](c2ccccc2)COC1=O`, the figure is 82 to 83 °C. As for `CCCCCCN(Cc1ccccn1)C(Nc1cc(C(C)(C)C)c(O)c(C(C)(C)C)c1)=C1C(=O)OC(C)(C)OC1=O`, the figure is 169 to 170 °C; as for `CCOP(=O)(/C=C/c1cn(-c2ccccc2)nc1OCc1ccc(OCc2nc(-c3ccccc3)oc2C)cc1)OCC`, 109 to 110 °C; as for `C#CC[C@H](c1nc2cc(Cl)ccc2c(=O)n1Nc1ccccc1)N(CCCN)C(=O)c1cc2ccccc2s1`, 103 to 106 °C. The figure for `O=C(Oc1ccc2c(c1)C13CCCCC1N(C2)N(C(=O)C1CC1)CC3)C1CC1` (single isomer, unassigned; (+)) is 144 °C.

On to `O=C(c1ccc(F)cc1C(F)(F)F)N1Cc2cccn2Cc2ccccc21`, for which the melting point lay within 154 to 155 °C. The compound `CC(=NNc1ccc(C2=NNC(=O)CC2C)cc1)c1ccncc1` (stereo unspecified) displayed a melting point of 246 to 248 °C. `CCN(CC)CCOc1ccc(C(O)(CC)c2cc(C)ccc2C)cc1` (stereo unspecified) registered a melting point of 89 to 90 °C. In turn, `NC(=O)CCN1CC(O)CC1=O` (stereo unspecified) yielded a melting point of 99 to 100 °C.

In turn, `CN(C)c1ccc(C=CC(=O)CC(=O)C=Cc2ccc(N(C)C)cc2)cc1` registered a melting point of 207 to 208 °C. Take `COc1ccc(C(=O)CCC(=O)O)cc1CO`: the melting point lay in the range of 217 to 218 °C. The figure for `[N-]=[N+]=NCc1ccc(C(=O)c2ccc(Cl)cc2)c(Cl)c1` is 33 to 33.5 °C. As for `COc1cccc(/C=C/C(=O)N2CC(CCl)c3c2cc([N+](=O)[O-])c2ccccc32)c1` (stereo unspecified), the figure is 200 °C. As for `NCCCC(N)(C(=O)O)C(F)F` (stereo unspecified), the figure is 183 °C; as for `CC(C)(C)OC(=O)NC(C(=O)OCC(=O)c1ccccc1)c1ccc(OCC(=O)c2ccccc2)cc1` (stereo unspecified), 125 to 126 °C. For `COc1ccc(OC(c2ccc(OC)cc2)C(Cl)(Cl)Cl)cc1` (stereo unspecified), the melting point is 90 °C. The figure for `N#Cc1ncncc1-c1ccc(CBr)cc1` is 114 to 116 °C; for `N#CCc1ccccc1CCc1ccc(Br)cc1` it is 59 to 60.5 °C. With `Cn1c(=O)c2c(ncn2CCCN2CCC(NC(=O)c3ccc(N)cc3)CC2)n(C)c1=O`, the melting point fell in the range of 203 to 205 °C. As for `CNC(=S)NS(=O)(=O)c1cc2c(cc1OC)OC(C)(C)C(NC(=O)c1cc(F)ccc1OC)C2` (stereo unspecified), the figure is 222 °C; as for `CCCCOc1ccc(C(=O)Nc2ccc3cc(CN4CCN(C)CC4)cnc3c2C)cc1`, 145 °C; as for `O=C1CCCC(Sc2ccccc2)C(c2ccccc2)O1` (stereo unspecified), 166 °C. As for `O=C(O)Cc1cc(=O)c(O)cn1Cc1ccccc1`, the figure is 231 to 235 °C. In turn, `NS(=O)(=O)c1cc2cccc(O)c2s1` came in with a melting point of 196 to 198 °C. As for `COCOc1ccc2c(c1)OC(C)(C)CC2=O`, the figure is 77 to 79 °C; as for `Cc1nc2scc(C)n2c(=O)c1CCN1CCC(=C(c2ccc(F)cc2)c2ccc(F)cc2)CC1`, 184 °C; as for `CCN(Cc1ccc(Cl)nc1)C(=NC)C(=Cc1ccco1)[N+](=O)[O-]`, 155 to 156 °C. The figure for `COc1ccc(C#N)c2c1OC1(COCC1OC)C2` (stereo unspecified) is 151 to 156 °C. As for `Nc1ccc(C=C2c3ccccc3CCc3ccccc32)cc1`, the figure is more than 250 °C. Take `OC1(C#Cc2ccc(-c3ccc(F)cc3)cc2)CN2CCC1CC2` (stereo unspecified): the melting point was in the range of 232 to 233 °C. The figure for `CSC(=C(C#N)C#N)N(C)N=Cc1ccccc1` is 159 to 160 °C; for `CCOc1cc2cc3c(c(-c4ccncc4)c2cc1OCC)C(=O)NC3=O` it is 210 to 213 °C; for `CCCNC1=NS(=O)(=O)c2c(sc(C)c2C#N)N1` it is 293 to 298 °C. In turn, `NC(=O)c1ccc(-c2ccc(Oc3ccc(F)cc3)cc2)[nH]1` yielded a melting point of 218 to 220 °C. In turn, `Cc1cccc(Cc2c[nH]cn2)c1` returned a melting point of 127 to 130 °C. As for `C[C@@H](CN1CCc2ccc3c(c21)CCS3)NC(=O)OC(C)(C)C`, the figure is 170 to 172 °C; as for `CC(C)(CNC(=O)COCC(=O)OCOC(=O)Cc1ccccc1Nc1c(Cl)cccc1Cl)SN=O`, 66 °C; as for `O=c1ccoc2cc(OCCCNCC3COc4ccc(O)cc4O3)ccc12` (stereo unspecified), 186 to 189 °C.

Consider `Cc1cccc2c(N3CCS(=O)CC3)nc(N3CCNCC3)cc12`, for which the melting point lay within 201 to 203 °C. The compound `C#Cc1ccc2nc(Cl)c(S(=O)(=O)N=CN(CC(C)C)CC(C)C)n2n1` had a melting point of 166 to 168 °C. The figure for `C=C1CCC2C3CCC4=CC(=O)C=CC4(C)C3CCC12C` (stereo unspecified) is 155 to 157 °C; for `CN1Cc2c(C#N)ncn2-c2cccc(Br)c2C1=O` it is 226 to 228 °C; for `CCC(=O)[C@@H](NC(=O)OCc1ccccc1)C(C)C` it is 49 to 50 °C. With `Cc1ccc(-c2cn(C)cc(-c3cccc(C(F)(F)F)c3)c2=O)c(C)c1`, the melting point fell in the range of 128 to 131 °C.

In turn, `CNC(=O)NC(=O)N(C)c1ccccc1` gave a melting point of 123 to 125 °C. The figure for `COC(OC)c1cnc(-c2ccccc2)nc1N` is 116 to 118 °C; for `Cc1c(NC(=O)CC(C)(C)C)c(C)c2c(c1-c1ccccn1)OCC2c1ccc(C(C)C)cc1` (stereo unspecified) it is 198 to 200 °C.

In the case of `COC(=O)c1nc(Br)cc(Br)c1O`, the melting point is 181 to 183 °C. As for `CC(C)(C)C(=O)N(NC(=O)c1ccccc1)C(C)(C)C`, the figure is 217 to 220 °C; as for `O=C(O)c1[nH]c2cc(Cl)cc(Cl)c2c1NCS(=O)(=O)c1ccccc1`, 286 to 290 °C; as for `COC(=O)CCc1ccc(OCC(C)NCC(O)c2ccccc2)cc1` (stereo unspecified), 103 to 104 °C. In the case of `CC(C)=Cn1cnc2c(N)nc3ccccc3c21`, the melting point is 284 to 289 °C. On to `COc1cc(N2CCN(C)CC2)ccc1Nc1ncc2cc3ccccc3n2n1`, for which the melting point fell in the range of 150 to 153 °C. The figure for `CC(C)(C)OC(=O)CCC1CCC(N)CC1` (stereo unspecified) is 39 to 40 °C; for `COc1cc(OC)nc(Sc2sccc2NS(=O)(=O)CC#N)c1` it is 118 to 120 °C; for `CS(=O)(=O)c1cccc(NC(=O)c2cnn3c(Cl)cc(-c4ccc(Cl)cc4)nc23)c1` it is 253 to 255 °C. As for `C=C(C)n1cc(C(=O)O)c(=O)c2cc(F)c(N3CC[C@H](N)C3)cc21`, the figure is 249 to 255 °C; as for `S=C1CN=C(c2ccccc2Cl)c2ccccc2N1`, 228 to 229 °C; as for `COC(=O)n1c(=O)oc2c(Cl)c(Cl)c(Cl)cc21`, 163 to 164 °C. The figure for `NS(=O)(=O)c1cc2cc(CO)ccc2s1` is 174 to 176 °C; for `CCCNC(=O)C(O)C1c2ccccc2C(=O)N1c1ccc2ccc(C)nc2n1` (stereo unspecified) it is 128 to 130 °C. For the compound `O=P(O)(O)Oc1cccc(-c2cn3c(n2)sc2ccccc23)c1`, the melting point lay within 205 to 208 °C. For `CCOP(=O)(OCC)C(C)(C)NC(=O)c1cccc(NC(=O)c2cccc([N+](=O)[O-])c2)c1`, the melting point lay within 120 to 121 °C.

In turn, `C=C(C)SC1C(NC(=O)COc2ccccc2)C(=O)N1C=O` (stereo unspecified) had a melting point of 156 to 158 °C.

`CC(=O)ONC(=N)c1ccc(NC(=O)CCCC(=O)Nc2ccc(C(=N)NOC(C)=O)cc2)cc1` showed a melting point of 225 to 228 °C.

`C=CCc1cc(C(C)=O)c(O)cc1OCCCCCC(N)=O` displayed a melting point of 122 to 124 °C. In turn, `C#CCn1ccc(CO)c1C(F)(F)F` registered a melting point of 63 °C. As for `COc1nc(N)nc(OCC(F)(F)F)n1`, the figure is 78 to 80 °C; as for `CSc1sc(C(N)=O)c2c1-c1sc(C(N)=O)cc1CC2`, more than 300 °C.
